Where a SMILES comes first, the peptide text is derived from it. Bridges are numbered along the chain shown (N, C = ends). [ ]: non-standard residue; d: D form. The star is where a group is joined. Phe(3-CF3) = N[C@@H](Cc1cccc(C(F)(F)F)c1)C(=O)O; Ala(morpholin-4-yl) = N[C@@H](CN1CCOCC1)C(=O)O; Phe(4-COOH) = N[C@@H](Cc1ccc(C(=O)O)cc1)C(=O)O; Bip = N[C@@H](Cc1ccc(-c2ccccc2)cc1)C(=O)O; NH(CH2)12COOH = O=C(O)CCCCCCCCCCCCN*; Val(3-OH) = CC(C)(O)[C@H](N)C(=O)O; Cha = N[C@@H](CC1CCCCC1)C(=O)O; Cit = NC(=O)NCCC[C@H](N)C(=O)O; Carboxymethyl = O=C(O)C*; NMeA = CN[C@@H](C)C(=O)O; Dab = NCC[C@H](N)C(=O)O

Data on 8 compounds can be found in US20260070945A1, “MACROCYCLIC IMMUNOMODULATORS” (Bristol-Myers Squibb Company, priority 2022, published 2026).

The assay deals with T1, PD-1/PD-L1 interaction (PE-labeled human PD-L1-Ig binding to Jurkat cell line over-expressing human PD-1) (Homo sapiens, UniProt Q15116).
T1 construct: expressed in transfected cells; host or cells: Jurkat
T1 sequence (Q15116 25-288): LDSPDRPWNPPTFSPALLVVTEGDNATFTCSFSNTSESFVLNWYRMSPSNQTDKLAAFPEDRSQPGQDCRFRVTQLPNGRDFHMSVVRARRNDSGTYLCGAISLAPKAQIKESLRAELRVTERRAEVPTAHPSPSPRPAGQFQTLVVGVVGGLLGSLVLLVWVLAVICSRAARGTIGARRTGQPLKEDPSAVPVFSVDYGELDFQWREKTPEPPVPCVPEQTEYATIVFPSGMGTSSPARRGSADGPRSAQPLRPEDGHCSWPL
Description: Jurkat-PD-1 Cell Binding High-Content Screening Assay (CBA). The note with it: Jurkat-hPD-1 cells, PE-labeled PD-L1-Ig 20 nM final; read-out: Jurkat HPD1 PDL1 IC50. In a few lines: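 Jurkat-hPD-1 cells (8×10^3/well) in DMEM with 10% fetal calf serum were preincubated with compound for 2 h at 37 °C. PE-labeled PD-L1-Ig was then added at 20 nM final for 1 h. Cells were fixed in paraformaldehyde with Hoechst 33342, washed and imaged by high-content imaging.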
As a reminder, the IC50 is the concentration that inhibits the measured activity by half. Turning to `CC(C)C[C@H]1NC(=O)[C@H](C)N(C)C(=O)[C@H](CCCNC(N)=O)NC(=O)[C@H](Cc2ccc(-c3ccccc3)cc2)NC(=O)[C@H](Cc2ccc(C(=O)O)cc2)NC(=O)[C@H](Cc2cccc(C(F)(F)F)c2)NC(=O)[C@H](CC(=O)O)NC(=O)[C@H](Cc2ccc(OCC(=O)O)cc2)NC(=O)[C@H](Cc2ccc(C(=O)O)cc2)NC(=O)CSC[C@@H](C(=O)N[C@@H](CCN)C(=O)NCCCCCCCCCCCCC(=O)O)NC(=O)[C@H](CO)NC(=O)[C@H](C(C)(C)O)NC(=O)[C@H](CC2CCCCC2)NC(=O)[C@H](CCN)NC1=O` [Example 1148] ({CH2CO}-[Phe(4-COOH)]Y(Carboxymethyl)D[Phe(3-CF3)][Phe(4-COOH)][Bip][Cit][NMeA][dL][Dab][Cha][Val(3-OH)]SC[Dab]-{NH(CH2)12COOH}; thioether N-14), the 50% inhibitory concentration (IC50) worked out at 0.0178 µM.
Turning to `CC(C)C[C@H]1NC(=O)[C@H](C)N(C)C(=O)[C@H](CCCNC(N)=O)NC(=O)[C@H](Cc2ccc(-c3ccccc3)cc2)NC(=O)[C@H](Cc2ccc(C(=O)O)cc2)NC(=O)[C@H](Cc2cccc(C(F)(F)F)c2)NC(=O)[C@H](CC(=O)O)NC(=O)[C@H](Cc2ccc(OCC(=O)O)cc2)NC(=O)[C@H](Cc2ccc(C(=O)O)cc2)NC(=O)CSC[C@@H](C(=O)N[C@@H](CCN)C(=O)NCCCCCCCCCCCCC(=O)O)NC(=O)[C@H](Cc2c[nH]cn2)NC(=O)[C@H](C(C)(C)O)NC(=O)[C@H](CC2CCCCC2)NC(=O)[C@H](CCN)NC1=O` [Example 1149] ({CH2CO}-[Phe(4-COOH)]Y(Carboxymethyl)D[Phe(3-CF3)][Phe(4-COOH)][Bip][Cit][NMeA][dL][Dab][Cha][Val(3-OH)]HC[Dab]-{NH(CH2)12COOH}; thioether N-14), the IC50 amounted to 0.0152 µM.
Consider `CC(C)C[C@H]1NC(=O)[C@H](C)N(C)C(=O)[C@H](CCC(N)=O)NC(=O)[C@H](Cc2ccc(-c3ccccc3)cc2)NC(=O)[C@H](Cc2ccc(C(=O)O)cc2)NC(=O)[C@H](Cc2cccc(C(F)(F)F)c2)NC(=O)[C@H](CC(=O)O)NC(=O)[C@H](Cc2ccc(OCC(=O)O)cc2)NC(=O)[C@H](CN2CCOCC2)NC(=O)CSC[C@@H](C(=O)N[C@@H](CCN)C(=O)NCCCCCCCCCCCCC(=O)O)NC(=O)[C@H](CC(=O)O)NC(=O)[C@H](C(C)(C)O)NC(=O)[C@H](CC2CCCCC2)NC(=O)[C@H](CCN)NC1=O` [Example 1150] ({CH2CO}-[Ala(morpholin-4-yl)]Y(Carboxymethyl)D[Phe(3-CF3)][Phe(4-COOH)][Bip]Q[NMeA][dL][Dab][Cha][Val(3-OH)]DC[Dab]-{NH(CH2)12COOH}; thioether N-14), for which the IC50 stood at 0.016 µM.
`CC(C)C[C@H]1NC(=O)[C@H](C)N(C)C(=O)[C@H](CCC(N)=O)NC(=O)[C@H](Cc2ccc(-c3ccccc3)cc2)NC(=O)[C@H](Cc2ccc(C(=O)O)cc2)NC(=O)[C@H](Cc2cccc(C(F)(F)F)c2)NC(=O)[C@H](CC(=O)O)NC(=O)[C@H](Cc2ccc(OCC(=O)O)cc2)NC(=O)[C@H](CN2CCOCC2)NC(=O)CSC[C@@H](C(=O)N[C@@H](CCN)C(=O)NCCCCCCCCCCCCC(=O)O)NC(=O)[C@H](CCC(=O)O)NC(=O)[C@H](C(C)C)NC(=O)[C@H](CC2CCCCC2)NC(=O)[C@H](CCN)NC1=O` [Example 1151] ({CH2CO}-[Ala(morpholin-4-yl)]Y(Carboxymethyl)D[Phe(3-CF3)][Phe(4-COOH)][Bip]Q[NMeA][dL][Dab][Cha]VEC[Dab]-{NH(CH2)12COOH}; thioether N-14): the IC50 was 0.0061 µM.
Consider `CC(C)C[C@H]1NC(=O)[C@H](C)N(C)C(=O)[C@H](CCC(N)=O)NC(=O)[C@H](Cc2ccc(-c3ccccc3)cc2)NC(=O)[C@H](Cc2ccc(C(=O)O)cc2)NC(=O)[C@H](Cc2cccc(C(F)(F)F)c2)NC(=O)[C@H](CC(=O)O)NC(=O)[C@H](Cc2ccc(OCC(=O)O)cc2)NC(=O)[C@H](CN2CCOCC2)NC(=O)CSC[C@@H](C(=O)N[C@@H](CCN)C(=O)NCCCCCCCCCCCCC(=O)O)NC(=O)[C@H](CO)NC(=O)[C@H](C(C)(C)O)NC(=O)[C@H](CC2CCCCC2)NC(=O)[C@H](CCN)NC1=O` [Example 1152] ({CH2CO}-[Ala(morpholin-4-yl)]Y(Carboxymethyl)D[Phe(3-CF3)][Phe(4-COOH)][Bip]Q[NMeA][dL][Dab][Cha][Val(3-OH)]SC[Dab]-{NH(CH2)12COOH}; thioether N-14), for which the concentration for half-maximal inhibition (IC50) came to 0.0118 µM.
Regarding `CC(=O)NCCCC[C@@H]1NC(=O)[C@H](C(C)(C)O)NC(=O)[C@H](CC2CCCCC2)NC(=O)[C@H](CCN)NC(=O)[C@@H](CC(C)C)NC(=O)[C@H](C)N(C)C(=O)[C@H](CCC(N)=O)NC(=O)[C@H](Cc2ccc(-c3ccccc3)cc2)NC(=O)[C@H](Cc2ccc(C(=O)O)cc2)NC(=O)[C@H](Cc2cccc(C(F)(F)F)c2)NC(=O)[C@H](CC(=O)O)NC(=O)[C@H](Cc2ccc(OCC(=O)O)cc2)NC(=O)[C@H](CN2CCOCC2)NC(=O)CSC[C@@H](C(=O)N[C@@H](CCN)C(=O)NCCCCCCCCCCCCC(=O)O)NC1=O` [Example 1153] ({CH2CO}-[Ala(morpholin-4-yl)]Y(Carboxymethyl)D[Phe(3-CF3)][Phe(4-COOH)][Bip]Q[NMeA][dL][Dab][Cha][Val(3-OH)]K(Ac)C[Dab]-{NH(CH2)12COOH}; thioether N-14), the IC50 worked out at 0.0129 µM.
Consider `CC(C)C[C@H]1NC(=O)[C@H](C)N(C)C(=O)[C@H](CCCNC(N)=O)NC(=O)[C@H](Cc2ccc(-c3ccccc3)cc2)NC(=O)[C@H](Cc2ccc(C(=O)O)cc2)NC(=O)[C@H](Cc2cccc(C(F)(F)F)c2)NC(=O)[C@H](CC(=O)O)NC(=O)[C@H](Cc2ccc(OCC(=O)O)cc2)NC(=O)[C@H](CN2CCOCC2)NC(=O)CSC[C@@H](C(=O)N[C@@H](CCN)C(=O)NCCCCCCCCCCCCC(=O)O)NC(=O)[C@H](CC(=O)O)NC(=O)[C@H](C(C)(C)O)NC(=O)[C@H](CC2CCCCC2)NC(=O)[C@H](CCN)NC1=O` [Example 1154] ({CH2CO}-[Ala(morpholin-4-yl)]Y(Carboxymethyl)D[Phe(3-CF3)][Phe(4-COOH)][Bip][Cit][NMeA][dL][Dab][Cha][Val(3-OH)]DC[Dab]-{NH(CH2)12COOH}; thioether N-14), for which the IC50 worked out at 0.0156 µM.
Turning to `CC(C)C[C@H]1NC(=O)[C@H](C)N(C)C(=O)[C@H](CCCNC(N)=O)NC(=O)[C@H](Cc2ccc(-c3ccccc3)cc2)NC(=O)[C@H](Cc2ccc(C(=O)O)cc2)NC(=O)[C@H](Cc2cccc(C(F)(F)F)c2)NC(=O)[C@H](CC(=O)O)NC(=O)[C@H](Cc2ccc(OCC(=O)O)cc2)NC(=O)[C@H](CN2CCOCC2)NC(=O)CSC[C@@H](C(=O)N[C@@H](CCN)C(=O)NCCCCCCCCCCCCC(=O)O)NC(=O)[C@H](CCC(=O)O)NC(=O)[C@H](C(C)C)NC(=O)[C@H](CC2CCCCC2)NC(=O)[C@H](CCN)NC1=O` [Example 1155] ({CH2CO}-[Ala(morpholin-4-yl)]Y(Carboxymethyl)D[Phe(3-CF3)][Phe(4-COOH)][Bip][Cit][NMeA][dL][Dab][Cha]VEC[Dab]-{NH(CH2)12COOH}; thioether N-14), the half-maximal inhibitory concentration (IC50) was determined as 0.0086 µM.
